Data from patent publication US8008525B2, “Receptor function regulating agent” (Takeda Pharmaceutical Company Limited, priority 2003, dated 2011).

Target: T1, human 14273 receptor (Homo sapiens, UniProt Q5NUL3)
T1 construct: expressed in transfected cells
T1 sequence (Q5NUL3 1-361): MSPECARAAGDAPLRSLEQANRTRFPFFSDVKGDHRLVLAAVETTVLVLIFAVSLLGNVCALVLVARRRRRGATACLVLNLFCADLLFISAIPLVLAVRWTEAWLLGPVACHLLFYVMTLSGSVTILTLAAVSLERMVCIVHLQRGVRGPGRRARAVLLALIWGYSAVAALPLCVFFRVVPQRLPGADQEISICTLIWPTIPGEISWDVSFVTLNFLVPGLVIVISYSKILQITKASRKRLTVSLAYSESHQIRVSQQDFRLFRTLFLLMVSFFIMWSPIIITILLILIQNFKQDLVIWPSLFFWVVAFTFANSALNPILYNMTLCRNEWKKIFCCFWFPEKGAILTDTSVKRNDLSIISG
Assay: Test Example 1: regulating effect for 14273 receptor function (agonist effect), change in intracellular calcium level by FLIPR
Type: cell-based
Conditions: CHO cell line (No. 104) expressing human 14273 receptor, change of fluorescent intensity after 35 seconds
Description: CHO cell lines (No. 104) in which a human 14273 receptor has expressed was diluted to contain 3×10^4/100 μl cells, and dispensed in Black walled 96-well plate (Costar) at a density of 100 μl/well, followed by culturing overnight in a CO2 incubator. A change in intracellular calcium level was measured using FLIPR (Molecular Device). The method is described as below. 50 μg of Fluo-3AM (DOJIN) was dissolved in 21 μl of DMSO (DOJIN) and an equal volume of 20% pluronic acid (Molecular Probes) was added thereto, followed by mixing them. The mixture was added to 10.6 ml of the assay buffer [which is prepared by adding 10 ml of a solution, which is prepared by adding 20 ml of 1 M HEPES (pH 7.4, DOJIN) to 1 L of HBSS (Invitrogen), dissolving 710 mg of probenecid (Sigma) in 5 ml of 1 N NaOH, and further adding 5 ml of the above-mentioned HBSS/HEPES solution and mixing it.] supplemented with 105 μl of fetal bovine serum to prepare a fluorescent dye solution. The medium of the cell plate was removed, the fluorescent dye solution was dispensed in 100 μl each per well. The culturing was performed in a CO2 incubator for 1 hour to incorporate the fluorescent dye into the cells. The cells after culturing were washed with the assay buffer. The compounds to be added to the cells were diluted to each concentration with a buffer solution to which CHAPS (DOJIN) was added in 0.015%, and dispensed in a plate for the test sample. Following the pretreatment above, a change in intracellular calcium level after addition of the compound was determined with FLIPR to investigate the agonist effect. An EC50 value was calculated from dose-reaction curve using the change of fluorescent intensity after 35 seconds from the reaction initiation.

| Compound | EC50 |
| --- | --- |
| O=C(O)CCc1ccc(OCc2cccc(Oc3ccccc3)c2)cc1 [Reference Example 8, 4-[(3-Phenoxyphenyl)methoxy]benzenepropanoic acid] | ≤ 10 µM |
| O=C(O)CCc1cc(F)c(OC2CCc3ccccc32)c(F)c1 (stereo not drawn) [Reference Example 14, 3,5-Difluoro-4-[(2,3-dihydro-1H-inden-1-yl)oxy]benzenepropanoic acid] | ≤ 10 µM |
| O=C(O)CCc1ccc(OCc2cccc(-c3ccccc3)c2)c(Cl)c1 [Reference Example 18, 4-([1,1′-Biphenyl]-3-ylmethoxy)-3-chlorobenzenepropanoic acid] | ≤ 10 µM |
| O=C(O)CCc1ccc(OC2CCCc3ccccc32)cc1 (stereo not drawn) [Reference Example 20, 4-[(1,2,3,4-Tetrahydronaphthalen-1-yl)oxy]benzenepropanoic acid] | ≤ 10 µM |
| CC1(C)Cc2ccccc2C1Oc1ccc(CCC(=O)O)cc1 (stereo not drawn) [Reference Example 25, 4-[(2,3-Dihydro-2,2-dimethyl-1H-inden-1-yl)oxy]benzenepropanoic acid] | ≤ 10 µM |
| O=C(O)CCc1ccc(OCc2ccccc2Oc2ccccc2)cc1 [Reference Example 30, 4-[(2-Phenoxyphenyl)methoxy]benzenepropanoic acid] | ≤ 10 µM |

The next lines start with the values.

| EC50 | Compound |
| --- | --- |
| ≤ 10 µM | COc1ccc2c(c1)C(Oc1ccc(CCC(=O)O)cc1)C(C)(C)C2 (stereo not drawn) [Reference Example 44, 4-[(2,3-Dihydro-6-methoxy-2,2-dimethyl-1H-inden-1-yl)oxy]benzenepropanoic acid] |
| ≤ 10 µM | CC1(C)Cc2ccc(Cl)cc2C1Oc1ccc(CCC(=O)O)cc1 (stereo not drawn) [Reference Example 47, 4-[(6-Chloro-2,3-dihydro-2,2-dimethyl-1H-inden-1-yl)oxy]benzenepropanoic acid] |
| ≤ 10 µM | Cc1ccc2c(c1)C(Oc1ccc(CCC(=O)O)cc1)C(C)(C)C2 (stereo not drawn) [Reference Example 50, 4-[(2,3-Dihydro-2,2,6-trimethyl-1H-inden-1-yl)oxy]benzenepropanoic acid] |
